Source: PubChem BioAssay AID256 (DTP/NCI, 2004)
Where “and” joins values, the source holds several entries; their conditions need not be identical. Equal entries are not always repeated. Inconclusive results and toxic doses are left out.

Tested on: CD2F1 mice, L1210 leukemia ip, survival T/C
Experiment: NCI In Vivo Anticancer Drug Screen. Data for tumor model L1210 Leukemia (intraperitoneal) in CD2F1 (CDF1) mice
Conditions: higher = longer survival
Summary of the method: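 Mice carrying a transplanted tumor received test compound or vehicle alone. The value is the measurement in the treated group divided by that in the vehicle-treated control group.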

[1] = endpoint: mean survival time, dose: 50.0 mg/kg/injection, schedule: Q01DX009 (ip), vehicle: saline with Tween-80
[2] = endpoint: mean survival time, dose: 100.0 mg/kg/injection, schedule: Q01DX009 (ip), vehicle: saline with Tween-80
[3] = endpoint: mean survival time, dose: 200.0 mg/kg/injection, schedule: Q01DX009 (ip), vehicle: saline with Tween-80
[4] = endpoint: mean survival time, dose: 100.0 mg/kg/injection, schedule: Q04DX003 (ip), vehicle: Klucel (hydroxypropylcellulose) (HPC)
[5] = endpoint: mean survival time, dose: 100.0 mg/kg/injection, schedule: Q04DX003 (ip), vehicle: saline with Tween-80
[6] = endpoint: mean survival time, dose: 200.0 mg/kg/injection, schedule: Q04DX003 (ip), vehicle: saline with Tween-80
[7] = endpoint: mean survival time, dose: 400.0 mg/kg/injection, schedule: Q04DX003 (ip), vehicle: saline with Tween-80
[8] = endpoint: mean survival time, dose: 100.0 mg/kg/injection, schedule: Q01DX009 (ip), vehicle: saline
[9] = endpoint: mean survival time, dose: 200.0 mg/kg/injection, schedule: Q01DX009 (ip), vehicle: saline
[10] = endpoint: mean survival time, dose: 400.0 mg/kg/injection, schedule: Q01DX009 (ip), vehicle: saline
[11] = endpoint: mean survival time, dose: 3.12 mg/kg/injection, schedule: Q04DX003 (ip), vehicle: saline with Tween-80
[12] = endpoint: mean survival time, dose: 12.5 mg/kg/injection, schedule: Q04DX003 (ip), vehicle: saline with Tween-80

## O=C(CNC(=O)Nc1ccc(F)cc1)N/N=C/c1cc(Br)ccc1O
[1]
  T/C: 100 % of control
[2]
  T/C: 96 % of control
[3]
  T/C: 88 % of control

## CC(=O)c1cc2ccccc2c2ccccc12
[1]
  T/C: 89 % of control
[2]
  T/C: 97 % of control
[3]
  T/C: 101 % of control

## NC(=O)/C=C/C(=O)c1c(Cl)cccc1Cl
endpoint: mean survival time, dose: 0.78 mg/kg/injection, schedule: Q01DX009 (ip), vehicle: saline with Tween-80
  T/C: 98 % of control
endpoint: mean survival time, dose: 0.79 mg/kg/injection, schedule: Q01DX009 (ip), vehicle: saline with Tween-80
  T/C: 97 % of control
endpoint: mean survival time, dose: 1.56 mg/kg/injection, schedule: Q01DX009 (ip), vehicle: saline with Tween-80
  T/C: 95 % of control and 97 % of control
endpoint: mean survival time, dose: 3.12 mg/kg/injection, schedule: Q01DX009 (ip), vehicle: saline with Tween-80
  T/C: 91 % of control and 104 % of control
endpoint: mean survival time, dose: 6.25 mg/kg/injection, schedule: Q01DX009 (ip), vehicle: saline with Tween-80
  T/C: 97 % of control and 101 % of control
endpoint: mean survival time, dose: 12.5 mg/kg/injection, schedule: Q01DX009 (ip), vehicle: saline with Tween-80
  T/C: 98 % of control and 100 % of control

## ClCc1ccc(Cl)c(Cl)c1
[4]
  T/C: 102 % of control
endpoint: mean survival time, dose: 200.0 mg/kg/injection, schedule: Q04DX003 (ip), vehicle: Klucel (hydroxypropylcellulose) (HPC)
  T/C: 102 % of control
endpoint: mean survival time, dose: 400.0 mg/kg/injection, schedule: Q04DX003 (ip), vehicle: Klucel (hydroxypropylcellulose) (HPC)
  T/C: 102 % of control

## CCCOC(=O)c1cc([N+](=O)[O-])c(Sc2ncnc3nc[nH]c23)c([N+](=O)[O-])c1
endpoint: mean survival time, dose: 0.63 mg/kg/injection, schedule: Q01DX005 (ip), vehicle: other
  T/C: 109 % of control
endpoint: mean survival time, dose: 1.25 mg/kg/injection, schedule: Q01DX005 (ip), vehicle: other
  T/C: 116 % of control
endpoint: mean survival time, dose: 2.5 mg/kg/injection, schedule: Q01DX005 (ip), vehicle: other
  T/C: 111 % of control
endpoint: mean survival time, dose: 5.0 mg/kg/injection, schedule: Q01DX005 (ip), vehicle: other
  T/C: 111 % of control
endpoint: mean survival time, dose: 10.0 mg/kg/injection, schedule: Q01DX005 (ip), vehicle: other
  T/C: 121 % of control
endpoint: mean survival time, dose: 62.5 mg/kg/injection, schedule: Q01DX005 (ip), vehicle: other
  T/C: 165 % of control
endpoint: mean survival time, dose: 125.0 mg/kg/injection, schedule: Q01DX005 (ip), vehicle: other
  T/C: 101 % of control

## CCN(CC)CCCNc1nccc2c(C)c3[nH]c4ccncc4c3cc12
endpoint: median survival time, dose: 5.0 mg/kg/injection, schedule: Q01DX001 (ip), vehicle: other
  T/C: 124 % of control
endpoint: median survival time, dose: 10.0 mg/kg/injection, schedule: Q01DX001 (ip), vehicle: other
  T/C: 157 % of control
endpoint: median survival time, dose: 20.0 mg/kg/injection, schedule: Q01DX001 (ip), vehicle: other
  T/C: 175 % of control

## O=C(COc1ccc(Cl)c(Cl)c1)Nc1cccc(C(=O)CCl)c1
[5]
  T/C: 95 % of control
[6]
  T/C: 101 % of control
[7]
  T/C: 103 % of control

## Cc1[nH]nc(C(F)(F)F)c1N=NN1CCOCC1
endpoint: mean survival time, dose: 75.0 mg/kg/injection, schedule: Q01DX001 (ip), vehicle: other
  T/C: 100 % of control
endpoint: mean survival time, dose: 150.0 mg/kg/injection, schedule: Q01DX001 (ip), vehicle: other
  T/C: 109 % of control
endpoint: mean survival time, dose: 300.0 mg/kg/injection, schedule: Q01DX001 (ip), vehicle: other
  T/C: 101 % of control

## O=C(CNC(=O)Nc1cccc(C(F)(F)F)c1)N/N=C/c1cccs1
[1]
  T/C: 88 % of control
[2]
  T/C: 96 % of control
[3]
  T/C: 92 % of control

## COc1cccc2c1C(=O)c1c(OC)c(CBr)cc(OC)c1C2=O
endpoint: mean survival time, dose: 12.5 mg/kg/injection, schedule: Q01DX005 (ip), vehicle: other
  T/C: 96 % of control
endpoint: mean survival time, dose: 25.0 mg/kg/injection, schedule: Q01DX005 (ip), vehicle: other
  T/C: 101 % of control
endpoint: mean survival time, dose: 50.0 mg/kg/injection, schedule: Q01DX005 (ip), vehicle: other
  T/C: 96 % of control
endpoint: mean survival time, dose: 100.0 mg/kg/injection, schedule: Q01DX005 (ip), vehicle: other
  T/C: 86 % of control

## N#CCCOCCC#N
[8]
  T/C: 100 % of control
[9]
  T/C: 98 % of control
[10]
  T/C: 102 % of control

## S=C(S)NN1CCCC1
endpoint: mean survival time, dose: 25.0 mg/kg/injection, schedule: Q01DX009 (ip), vehicle: saline with Tween-80
  T/C: 101 % of control
[1]
  T/C: 100 % of control
[5]
  T/C: 92 % of control

## NC(CCl)=NCC12CC3CC(CC(C3)C1)C2
endpoint: median survival time, dose: 3.0 mg/kg/injection, schedule: Q01DX009 (ip), vehicle: Klucel (hydroxypropylcellulose) (HPC)
  T/C: 104 % of control
endpoint: median survival time, dose: 6.0 mg/kg/injection, schedule: Q01DX009 (ip), vehicle: Klucel (hydroxypropylcellulose) (HPC)
  T/C: 107 % of control
endpoint: median survival time, dose: 12.0 mg/kg/injection, schedule: Q01DX009 (ip), vehicle: Klucel (hydroxypropylcellulose) (HPC)
  T/C: 108 % of control
endpoint: median survival time, dose: 24.0 mg/kg/injection, schedule: Q01DX009 (ip), vehicle: Klucel (hydroxypropylcellulose) (HPC)
  T/C: 110 % of control

## C[NH-].[Cl][Pt+2][Cl].[NH-]C1CC1
endpoint: mean survival time, dose: 1.56 mg/kg/injection, schedule: Q04DX003 (ip), vehicle: saline
  T/C: 103 % of control
[11]
  T/C: 113 % of control
endpoint: mean survival time, dose: 3.12 mg/kg/injection, schedule: Q04DX003 (ip), vehicle: saline
  T/C: 103 % of control
endpoint: mean survival time, dose: 6.25 mg/kg/injection, schedule: Q04DX003 (ip), vehicle: saline
  T/C: 120 % of control
[12]
  T/C: 104 % of control

## CC1CC(C)SC(C)S1 (stereo unspecified)
endpoint: mean survival time, dose: 50.0 mg/kg/injection, schedule: Q04DX002 (ip), vehicle: saline with Tween-80
  T/C: 102 % of control
endpoint: mean survival time, dose: 100.0 mg/kg/injection, schedule: Q04DX002 (ip), vehicle: saline with Tween-80
  T/C: 105 % of control
endpoint: mean survival time, dose: 200.0 mg/kg/injection, schedule: Q04DX002 (ip), vehicle: saline with Tween-80
  T/C: 97 % of control

## C1CN(SSN2CCOCC2)CCO1
[5]
  T/C: 100 % of control
[6]
  T/C: 92 % of control

## CN(C)c1ccc(/C=N/NC(=O)c2ccccc2)cc1
[11]
  T/C: 90 % of control
endpoint: mean survival time, dose: 6.25 mg/kg/injection, schedule: Q04DX003 (ip), vehicle: saline with Tween-80
  T/C: 96 % of control
[12]
  T/C: 94 % of control

## COc1ccc(-c2cc(C(=O)Nc3cc(C(F)(F)F)cc(C(F)(F)F)c3)c3ccccc3n2)cc1
endpoint: median survival time, dose: 25.0 mg/kg/injection, schedule: Q01DX005 (ip), vehicle: DMSO
  T/C: 100 % of control
endpoint: median survival time, dose: 50.0 mg/kg/injection, schedule: Q01DX005 (ip), vehicle: DMSO
  T/C: 98 % of control
endpoint: median survival time, dose: 100.0 mg/kg/injection, schedule: Q01DX005 (ip), vehicle: DMSO
  T/C: 98 % of control
endpoint: median survival time, dose: 200.0 mg/kg/injection, schedule: Q01DX005 (ip), vehicle: DMSO
  T/C: 109 % of control
endpoint: median survival time, dose: 400.0 mg/kg/injection, schedule: Q01DX005 (ip), vehicle: DMSO
  T/C: 106 % of control

## S=C(S)NCCNC(=S)S
[8]
  T/C: 102 % of control
[9]
  T/C: 100 % of control
[10]
  T/C: 90 % of control

## CCOC(=S)SCC(=O)O
endpoint: mean survival time, dose: 100.0 mg/kg/injection, schedule: Q01DX001 (ip), vehicle: saline with Tween-80
  T/C: 92 % of control
endpoint: mean survival time, dose: 200.0 mg/kg/injection, schedule: Q01DX001 (ip), vehicle: saline with Tween-80
  T/C: 96 % of control

## CCOC(=O)C(=O)C[n+]1cc2ccccc2cc1/C=N/O
endpoint: mean survival time, dose: 100.0 mg/kg/injection, schedule: Q04DX003 (ip), vehicle: saline
  T/C: 105 % of control
endpoint: mean survival time, dose: 200.0 mg/kg/injection, schedule: Q04DX003 (ip), vehicle: saline
  T/C: 105 % of control
endpoint: mean survival time, dose: 400.0 mg/kg/injection, schedule: Q04DX003 (ip), vehicle: saline
  T/C: 94 % of control

## CC(C)(C)Nc1ccc([N+](=O)[O-])cc1Cl
endpoint: mean survival time, dose: 12.5 mg/kg/injection, schedule: Q01DX001 (ip), vehicle: DMSO
  T/C: 89 % of control
endpoint: mean survival time, dose: 25.0 mg/kg/injection, schedule: Q01DX001 (ip), vehicle: DMSO
  T/C: 100 % of control
endpoint: mean survival time, dose: 25.0 mg/kg/injection, schedule: Q04DX003 (ip), vehicle: Klucel (hydroxypropylcellulose) (HPC)
  T/C: 93 % of control
endpoint: mean survival time, dose: 50.0 mg/kg/injection, schedule: Q01DX001 (ip), vehicle: DMSO
  T/C: 103 % of control
endpoint: mean survival time, dose: 50.0 mg/kg/injection, schedule: Q04DX003 (ip), vehicle: Klucel (hydroxypropylcellulose) (HPC)
  T/C: 94 % of control
[4]
  T/C: 91 % of control

## CN(C1=CC(=O)c2ccccc2C1=O)C1CCCCC1
[5]
  T/C: 93 % of control
[6]
  T/C: 93 % of control
[7]
  T/C: 104 % of control

## O=Cc1ccc(/C=C2\C=Cc3ccccc32)cc1
[2]
  T/C: 101 % of control
[3]
  T/C: 94 % of control
endpoint: mean survival time, dose: 400.0 mg/kg/injection, schedule: Q01DX009 (ip), vehicle: saline with Tween-80
  T/C: 103 % of control

## CCOCCNCc1ccc(Cl)c(Cl)c1
[5]
  T/C: 93 % of control
[6]
  T/C: 94 % of control

## O=C(O)O
endpoint: mean survival time, dose: 200.0 mg/kg/injection, schedule: Q01DX001 (ip), vehicle: saline
  T/C: 105 % of control
[3]
  T/C: 107 % of control
endpoint: mean survival time, dose: 400.0 mg/kg/injection, schedule: Q01DX001 (ip), vehicle: saline
  T/C: 100 % of control
